Laboratory results from ChEMBL document CHEMBL1128445, “Antiinflammatory 4,5-diarylpyrroles. 2. Activity as a function of cyclooxygenase-2 inhibition” (J Med Chem, 1995).

Key:
Rattus norvegicus [1] = assay: In vivo effective dose required for antiinflammatory activity in rat adjuvant arthritis model; assay type: functional
[2] = molecular target: T1, Prostaglandin G/H synthase 1 (Ovis aries, UniProt P05979); assay: Tested for inhibitory activity against Prostaglandin G/H synthase 1 from ovine
T1 sequence (P05979 whole entry): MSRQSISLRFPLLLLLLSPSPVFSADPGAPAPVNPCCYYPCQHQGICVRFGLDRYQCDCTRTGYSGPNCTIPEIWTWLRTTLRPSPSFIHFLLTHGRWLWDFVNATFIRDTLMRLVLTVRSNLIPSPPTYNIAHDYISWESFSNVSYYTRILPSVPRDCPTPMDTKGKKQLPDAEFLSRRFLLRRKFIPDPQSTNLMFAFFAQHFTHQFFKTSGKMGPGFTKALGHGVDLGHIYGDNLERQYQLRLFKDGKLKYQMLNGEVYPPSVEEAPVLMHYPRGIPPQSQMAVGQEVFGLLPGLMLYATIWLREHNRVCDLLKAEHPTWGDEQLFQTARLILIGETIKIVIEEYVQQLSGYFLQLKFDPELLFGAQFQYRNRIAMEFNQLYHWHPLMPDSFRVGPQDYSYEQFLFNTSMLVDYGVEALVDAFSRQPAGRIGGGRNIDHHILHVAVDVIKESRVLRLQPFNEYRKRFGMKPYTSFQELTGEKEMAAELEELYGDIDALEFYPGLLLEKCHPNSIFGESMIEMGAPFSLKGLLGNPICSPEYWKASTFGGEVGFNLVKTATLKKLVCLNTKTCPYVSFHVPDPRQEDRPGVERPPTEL

Rattus norvegicus [3] = assay: The compound was tested for maximum blood level reached in rats at 15.9 uM/Kg after peroral administration.; assay type: ADME, organism-based; parameters: dose 15.9 uM/Kg, route oral; conditions: in vivo, po
Rattus norvegicus [4] = assay: The compound was tested for maximum blood level reached in rats at 15.9 uM/Kg after intravenous administration.; assay type: ADME, organism-based; parameters: dose 15.9 uM/Kg, route intravenous; conditions: in vivo, 15.9 µmol/kg

Row | Structure (SMILES) | ED50 (Rattus norvegicus [1]) | IC50 [2] | Cmax (Rattus norvegicus [3]) | Cmax (Rattus norvegicus [3]; 15.9 µmol/kg) | Cmax (Rattus norvegicus [4])
1 | CC(=O)Oc1ccccc1C(=O)O [ASPIRIN] | 1942.7 µM | – | – | – | –
2 | CS(=O)(=O)c1ccc(-c2[nH]c(I)cc2-c2ccc(F)cc2)cc1 | 49.86 µM | > 300 µM | – | – | –
3 | CN1C(C(=O)Nc2ccccn2)=C(O)c2ccccc2S1(=O)=O [PIROXICAM] | 1.3 µM | – | – | – | –
4 | CS(=O)(=O)c1ccc(-c2[nH]ccc2-c2ccc(F)cc2)cc1 | >317 µM | 373 µM | < 0.1 uM l-1 | – | –
5 | CS(=O)(=O)c1ccc(-c2[nH]c([N+](=O)[O-])cc2-c2ccc(F)cc2)cc1 | 24.97 µM | – | – | – | –
6 | Cn1ccc(-c2ccc(F)cc2)c1-c1ccc(S(C)(=O)=O)cc1 | >303 µM | > 300 µM | – | – | –
7 | CS(=O)(=O)c1ccc(-c2[nH]c(I)c(I)c2-c2ccc(F)cc2)cc1 | 72.82 µM | 127 µM | – | – | –
8 | CC(=O)n1c(Br)cc(-c2ccc(F)cc2)c1-c1ccc(S(C)(=O)=O)cc1 | 82.95 µM | – | – | – | –
9 | Cn1c(Br)c(Br)c(-c2ccc(F)cc2)c1-c1ccc(S(C)(=O)=O)cc1 | 8.54 µM | 767 µM | – | – | –
10 | CS(=O)(=O)c1ccc(-c2[nH]c(SC#N)cc2-c2ccc(F)cc2)cc1 | 10.47 µM | 219 µM | – | – | –
11 | CS(=O)(=O)c1ccc(-c2[nH]c(Br)c(Cl)c2-c2ccc(F)cc2)cc1 | 9.98 µM | – | – | – | –
12 | Cn1c(Br)cc(-c2ccc(F)cc2)c1-c1ccc(S(C)(=O)=O)cc1 | 4.16 µM | 516 µM | – | 1.5 uM l-1 | 2.9 uM l-1
13 | CS(=O)(=O)c1ccc(-c2[nH]c(Br)cc2-c2ccc(F)cc2)cc1 | 2.66 µM | 132 µM | – | 3 uM l-1 | 2 uM l-1
14 | CCCCC1C(=O)N(c2ccccc2)N(c2ccccc2)C1=O [PHENYLBUTAZONE] | 32.4 µM | 384 µM | – | – | –
15 | CSc1cc(-c2ccc(F)cc2)c(-c2ccc(S(C)(=O)=O)cc2)[nH]1 | 4.89 µM | 36 µM | – | – | –
16 | COc1ccc2c(c1)c(CC(=O)O)c(C)n2C(=O)c1ccc(Cl)cc1 [INDOMETHACIN] | 0.84 µM | – | – | – | –
17 | CS(=O)(=O)c1ccc(-c2[nH]c(Cl)c(Cl)c2-c2ccc(F)cc2)cc1 | 3.9 µM | 20 µM | – | – | –
18 | CC(C)(C)OC(=O)n1c(Br)cc(-c2ccc(F)cc2)c1-c1ccc(S(C)(=O)=O)cc1 | 32 µM | > 300 µM | – | – | –
19 | CS(=O)(=O)c1ccc(-c2[nH]c(Cl)c(Br)c2-c2ccc(F)cc2)cc1 | 7.93 µM | 44 µM | – | – | –
20 | Cn1c(Cl)c(Cl)c(-c2ccc(F)cc2)c1-c1ccc(S(C)(=O)=O)cc1 | 12.55 µM | 650 µM | – | – | –
21 | CS(=O)(=O)c1ccc(-c2[nH]c(C(=O)C(F)(F)F)cc2-c2ccc(F)cc2)cc1 | 47.16 µM | 580 µM | – | – | –
22 | CC(C)Cc1ccc(C(C)C(=O)O)cc1 (stereo not given) [IBUPROFEN] | 484.8 µM | – | – | – | –
23 | CS(=O)(=O)c1ccc(-c2[nH]c(Cl)cc2-c2ccc(F)cc2)cc1 | – | 94 µM | – | 2.3 uM l-1 | 1.4 uM l-1
24 | CS(=O)(=O)c1ccc(-c2[nH]c(S(C)(=O)=O)cc2-c2ccc(F)cc2)cc1 | 93.02 µM | > 300 µM | – | – | –
25 | CS(=O)(=O)c1ccc(-c2[nH]c(C#N)cc2-c2ccc(F)cc2)cc1 | 3.82 µM | – | – | 2.9 uM l-1 | 4.1 uM l-1
